Read-outs that look alike come from different tables or passages of the source.
Assays:
[1] = test system: MTB H37Rv wildtype; format: cell-based, Mycobacterium tuberculosis
[2] = test system: MTB H37Rv lacking Rv0324; format: cell-based, Mycobacterium tuberculosis
[3] = test system: MTB H37Rv lacking Rv0880; format: cell-based, Mycobacterium tuberculosis
[4] = test system: MTB; format: cell-based, Mycobacterium tuberculosis
[5] = test system: Rv2323c'::GFP strain (Rv0324-responsive promoter); format: cell-based, Mycobacterium tuberculosis; conditions: in the presence of BDQ, FIG. 2
[6] = test system: MTB; conditions: cited from earlier work
[7] = target: mycobacterial F1Fo ATP synthase (Mycobacterium tuberculosis, UniProt P9WPS1+P9WPV7); conditions: cited from earlier work

SMILES: COc1nc2ccc(Br)cc2cc1[C@@H](c1ccccc1)[C@@](O)(CCN(C)C)c1cccc2ccccc12 [bedaquiline]
- overall growth rate over seven days of treatment [1]: positive growth rate
- greater survival deficiency compared to the wildtype [2]: 1.8 log10
- overall growth over seven days of treatment [2]: negative overall growth
- greater survival deficiency compared to the wildtype [3]: 1.3 -fold log10
- overall growth over seven days of treatment [3]: negative overall growth
- decrease in Rv0880 expression [4]: > 2.0 absolute log2 fold-change
- genes significantly differentially expressed compared to untreated samples [4]: 1,121 genes
- increase in Rv0324 expression upon bedaquiline treatment [4]: > 1.5 absolute log2 fold-change
- downregulated genes among the differentially expressed genes ([4]; 15 μM BDQ, 48 and 96 hours combined): 897 genes
- GFP fluorescence of the reporter strain [5]: high level of fluorescence
- MTB killing ([6]; after 96 hours): effective MTB killing occurs
- bactericidal activity ([6]; during the first 4-6 days): almost no bactericidal activity
- bactericidal activity ([6]; first 96 hours after BDQ treatment, even at 30 times the MIC): little bactericidal activity
- selectivity for mycobacterial F1Fo ATP synthase [7]: high selectivity

From US10472687B2, “Methods to identify antituberculosis compounds” (priority 2016, dated 2019)
